Measurements as given in patent US20250230193A1, “CYCLIC COMPOUND HAVING SELECTIVE KRAS INHIBITORY EFFECT ON HRAS AND NRAS” (CHUGAI SEIYAKU KABUSHIKI KAISHA, priority 2022, published 2025).
*1 amine or outer side, *2 acyl side, *3 side chain or, on linkers, in order; H or OH if unused. Where a SMILES comes first, the peptide text is derived from it. Bridges are numbered along the chain shown (N, C = ends). [ ]: non-standard residue; d: D form. The star is where a group is joined. hPhe(3-Cl-4-CF3) = N[C@@H](CCc1ccc(C(F)(F)F)c(Cl)c1)C(=O)O; X23 = CC(C)CN([C@@H](Cc1ccc(C(F)(F)F)cc1)C(=O)[*:2])[*:1]; NPrPhe(4-CF3) = CCCN[C@@H](Cc1ccc(C(F)(F)F)cc1)C(=O)O; NMeGly(cPent) = CN[C@H](C(=O)O)C1CCCC1; NMeD = CN[C@@H](CC(=O)O)C(=O)O; NMeL = CN[C@@H](CC(C)C)C(=O)O; Morpholide = C1CN(*)CCO1; NMeA = CN[C@@H](C)C(=O)O; Ac5c = NC1(C(=O)O)CCCC1; Aze = O=C(O)[C@@H]1CCN1; NEtG = CCNCC(=O)O; Sar = CNCC(=O)O

Legend:
[1] = target: GDP-bound NRAS wild-type protein (Homo sapiens, UniProt P01111); test: Binding to NRAS by surface plasmon resonance (SPR), Single Cycle Kinetics; details: SPR
[2] = target: GDP-bound HRAS wild-type protein (Homo sapiens, UniProt P01112); test: Binding to HRAS by surface plasmon resonance (SPR), Single Cycle Kinetics; details: SPR
[3] = KD ratio, GDP-bound NRAS wild-type vs GDP-bound KRAS wild-type
[4] = KD ratio, GDP-bound HRAS wild-type vs GDP-bound KRAS wild-type

GDP-bound HRAS wild-type protein, sequence (P01112 whole entry): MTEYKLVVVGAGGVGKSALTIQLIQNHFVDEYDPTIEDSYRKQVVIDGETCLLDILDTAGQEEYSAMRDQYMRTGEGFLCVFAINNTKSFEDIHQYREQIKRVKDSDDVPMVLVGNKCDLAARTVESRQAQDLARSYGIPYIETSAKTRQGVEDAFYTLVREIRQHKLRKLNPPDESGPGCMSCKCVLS
GDP-bound NRAS wild-type protein, sequence (P01111 whole entry): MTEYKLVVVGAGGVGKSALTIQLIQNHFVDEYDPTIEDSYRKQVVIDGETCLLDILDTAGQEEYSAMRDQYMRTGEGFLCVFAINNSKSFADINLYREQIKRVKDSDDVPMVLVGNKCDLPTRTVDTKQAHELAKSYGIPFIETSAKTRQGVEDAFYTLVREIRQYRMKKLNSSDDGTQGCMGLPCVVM

For CCO[C@@H]1C[C@H]2C(=O)NC3(CCC3)C(=O)N(C)[C@@H](C(CC)CC)C(=O)N(C)[C@H](C(=O)N3CCCCC3)CC(=O)N(C)[C@H]3CCCCC/C=C/c4ccc(cc4)C[C@@H](C(=O)N(C)CC(=O)N[C@@H](CCc4ccc(Cl)c(Cl)c4)C(=O)N2C1)N1CC/C=C\C[C@@H](C1=O)N(C)C(=O)CN(C)C(=O)[C@H]([C@@H](C)CC)NC3=O [PP3051], the “NRAS/KRAS (ratio of KD value with respect to GDP-bound NRAS wild-type protein to KD value with respect to KRAS)” value ([1]; KD ratio NRAS/KRAS, GDP-bound wild-type proteins) was “AA (a compound having 20 or more is denoted as AA)” and the “HRAS/KRAS (ratio of KD value with respect to GDP-bound HRAS wild-type protein to KD value with respect to KRAS)” value ([2]; KD ratio HRAS/KRAS, GDP-bound wild-type proteins) was “A (a compound having 10 or more and less than 20 is denoted as A)”.
With CCCN1C(=O)CN(C)C(=O)CN(CC)C(=O)[C@H]([C@@H](C)CC)NC(=O)[C@H](CC(C)C)N(C)C(=O)C[C@@H](C(=O)N2CCOCC2)N(C)C(=O)[C@H](C2CCCC2)N(C)C(=O)C2(CCCC2)NC(=O)[C@@H]2CCN2C(=O)[C@H](CCc2ccc(C(F)(F)F)c(Cl)c2)NC(=O)CN(C)C(=O)[C@@H]1Cc1ccc(C(F)(F)F)cc1 [PP0294] ([NMeL]I[NEtG][Sar][NPrPhe(4-CF3)][Sar][hPhe(3-Cl-4-CF3)][Aze][Ac5c][NMeGly(cPent)][NMeD]-Morpholide; lactam N-11) the “NRAS/KRAS (ratio of KD for GDP-bound NRAS wild-type to KD for KRAS)” value ([1]; KD ratio NRAS/KRAS) was “B (a compound having 3 or more and less than 10 is denoted as B)” and the “HRAS/KRAS (ratio of KD for GDP-bound HRAS wild-type to KD for KRAS)” value ([2]; KD ratio HRAS/KRAS) was “C (A compound having a KD ratio of 0.1 or more and less than 3 is denoted as C)”.
With CCO[C@@H]1C[C@H]2C(=O)NC3(CCC3)C(=O)N(C)[C@@H](C3CCCC3)C(=O)N(C)[C@H](C(=O)N(C)C)CC(=O)N(C)[C@@H](Cc3cccs3)C(=O)N[C@@H]([C@@H](C)CC)C(=O)N(C)CC(=O)N(C)[C@H]3C/C=C\CCN(C3=O)[C@@H](Cc3ccc(C(F)(F)F)cc3)C(=O)N(C)CC(=O)N[C@@H](CCc3cc(F)c(C(F)(F)F)c(F)c3)C(=O)N2C1 [PP1123] the “NRAS/KRAS (ratio of KD value with respect to NRAS to KD value with respect to KRAS)” value [1, 3] was “A (a compound having 10 or more and less than 20 is denoted as A)” and the “HRAS/KRAS (ratio of KD value with respect to HRAS to KD value with respect to KRAS)” value [2, 4] was “B (a compound having 3 or more and less than 10 is denoted as B)”.
For CCCN(C)C(=O)[C@@H]1CC(=O)N(C)[C@@H](COCC)C(=O)N[C@@H]([C@@H](C)CC)C(=O)N(C)CC(=O)N(C)[C@H]2C/C=C\CCN(C2=O)[C@@H](Cc2ccc(C(F)(F)F)cc2)C(=O)N(C)CC(=O)N[C@@H](CCc2ccc(C(F)(F)F)c(OC)c2)C(=O)N2C[C@@H](C)C[C@H]2C(=O)NC2(CCC2)C(=O)N(C)[C@@H](C2CCCC2)C(=O)N1C [PP2025], the “NRAS/KRAS (ratio of KD value for NRAS to KD value for KRAS)” value [1, 3] was “A (a compound having 10 or more and less than 20 is denoted as A)” and the “HRAS/KRAS (ratio of KD value for HRAS to KD value for KRAS)” value [2, 4] was “B (a compound having 3 or more and less than 10 is denoted as B)”.
In the case of CC[C@H](C)[C@@H]1NC(=O)[C@H](CC2CCC2)N(C)C(=O)C[C@@H](C(=O)N(C)C)N(C)C(=O)[C@H](C2CCCC2)N(C)C(=O)C2(CC(C)(C)C2)NC(=O)[C@@H]2CC(F)(F)CN2C(=O)[C@H](CCc2cc(F)c(C(F)(F)F)c(F)c2)NC(=O)CN(C)C(=O)[C@H](Cc2ccc(C(F)(F)F)cc2)N2CC/C=C\C[C@@H](C2=O)N(C)C(=O)CN(C)C1=O [PP1716], the “NRAS/KRAS (ratio of KD value for NRAS to KD value for KRAS)” value [1, 3] is reported as “AA (a compound having 20 or more is denoted as AA)” and the “HRAS/KRAS (ratio of KD value for HRAS to KD value for KRAS)” value [2, 4] is reported as “A (a compound having 10 or more and less than 20 is denoted as A)”.
CCCN(C)C(=O)[C@@H]1CC(=O)N(C)[C@@H](COCC)C(=O)N[C@@H]([C@@H](C)CC)C(=O)N(C)CC(=O)N(C)[C@H]2C/C=C\CCN(C2=O)[C@@H](Cc2ccc(C(F)(F)F)cc2)C(=O)N(C)CC(=O)N[C@@H](CCc2cc(F)c(C(F)(F)F)c(F)c2)C(=O)N2C[C@H](OCC)C[C@H]2C(=O)NC2(CCC2)C(=O)N(C)[C@@H](C2CCCC2)C(=O)N1C [PP1988] was tested, and the “NRAS/KRAS (ratio of KD value for NRAS to KD value for KRAS)” value [1, 3] was “A (a compound having 10 or more and less than 20 is denoted as A)” and the “HRAS/KRAS (ratio of KD value for HRAS to KD value for KRAS)” value [2, 4] was “A (a compound having 10 or more and less than 20 is denoted as A)”.
With CC[C@H](C)[C@@H]1NC(=O)[C@H](CC(C)C)N(C)C(=O)C[C@@H](C(=O)N2CCOCC2)N(C)C(=O)[C@H](C2CCCC2)N(C)C(=O)C2(CCCC2)NC(=O)[C@@H]2CCCN2C(=O)[C@H](CCc2ccc(C(F)(F)F)c(Cl)c2)NC(=O)CN(C)C(=O)[C@H](Cc2ccc(C(F)(F)F)cc2)N(CC(C)C)C(=O)[C@@H]2CCN2C(=O)[C@H](C)N(C)C1=O [PP0107] ([NMeL]I[NMeA][Aze][X23][Sar][hPhe(3-Cl-4-CF3)]P[Ac5c][NMeGly(cPent)][NMeD]-Morpholide; lactam N-11) the “NRAS/KRAS (ratio of KD for GDP-bound NRAS wild-type to KD for KRAS)” value ([1]; KD ratio NRAS/KRAS) was “C (A compound having a KD ratio of 0.1 or more and less than 3 is denoted as C)” and the “HRAS/KRAS (ratio of KD for GDP-bound HRAS wild-type to KD for KRAS)” value ([2]; KD ratio HRAS/KRAS) was “C (A compound having a KD ratio of 0.1 or more and less than 3 is denoted as C)”.
